These compounds were tested against TRKA (Homo sapiens (Human), UniProt P04629) (assay: Isolated TRK enzyme assay (HTRF KinEASE-TK), TRKA). Settings: read-out: Trka enzyme (IC50).
Type: biochemical

TRKA, sequence (P04629 441-796): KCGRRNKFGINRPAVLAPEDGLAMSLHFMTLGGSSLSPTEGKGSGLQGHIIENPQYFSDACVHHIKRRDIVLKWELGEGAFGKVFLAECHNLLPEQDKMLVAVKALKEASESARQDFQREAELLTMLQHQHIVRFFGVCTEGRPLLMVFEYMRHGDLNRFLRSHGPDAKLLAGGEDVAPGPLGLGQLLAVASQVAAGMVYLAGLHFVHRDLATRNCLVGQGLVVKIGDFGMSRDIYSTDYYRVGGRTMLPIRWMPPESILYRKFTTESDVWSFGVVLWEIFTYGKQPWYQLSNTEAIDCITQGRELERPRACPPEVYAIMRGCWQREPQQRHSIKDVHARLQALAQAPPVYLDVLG

| IC50 | Compound |
| --- | --- |
| 153 nM | CN(C(=O)Cc1ccc(F)cc1)c1cncc(C(=O)c2cn(C(C)(C)C)c3ncncc23)c1 [Example 540, N-[5-(7-tert-Butyl-7H-pyrrolo[2,3-d]pyrimidine-5-carbonyl)-pyridin-3-yl]-2-(4-fluoro-phenyl)-N-methyl-acetamide] |
| 50 nM | CN(C(=O)Cc1ccc(Cl)cn1)c1cncc(C(=O)c2cn(C(C)(C)C)c3ncncc23)c1 [Example 543, N-[5-(7-tert-Butyl-7H-pyrrolo[2,3-d]pyrimidine-5-carbonyl)-pyridin-3-yl]-2-(5-chloro-pyridin-2-yl)-N-methyl-acetamide] |
| 31.6 nM | CN(C(=O)Cc1ccc(Cl)cc1)c1cncc(C(=O)c2cn(C(C)(C)C)c3ncncc23)c1 [Example 544, N-[5-(7-tert-Butyl-7H-pyrrolo[2,3-d]pyrimidine-5-carbonyl)-pyridin-3-yl]-2-(4-chloro-phenyl)-N-methyl-acetamide] |
| 2.95 nM | CC(C)(C)n1cc(C(=O)c2cncc(NC(=O)Cc3ccc(Cl)cc3)c2)c2cncnc21 [Example 545, N-[5-(7-tert-Butyl-7H-pyrrolo[2,3-d]pyrimidine-5-carbonyl)-pyridin-3-yl]-2-(4-chloro-phenyl)-acetamide] |
| 5.34 nM | CC(C)(C)n1cc(C(=O)c2cncc(NC(=O)Cc3ccc(F)cc3)c2)c2cncnc21 [Example 546, N-[5-(7-tert-Butyl-7H-pyrrolo[2,3-d]pyrimidine-5-carbonyl)-pyridin-3-yl]-2-(4-fluoro-phenyl)-acetamide] |
| 3.88 nM | COCC(C)(C)n1cc(C(=O)c2cncc(NC(=O)Cc3ccc(Cl)cn3)c2)c2cnc(N)nc21 [Example 547, N-{5-[2-Amino-7-(2-methoxy-1,1-dimethyl-ethyl)-7H-pyrrolo[2,3-d]pyrimidine-5-carbonyl]-pyridin-3-yl}-2-(5-chloro-pyridin-2-yl)-acetamide] |
| 21.2 nM | COCC(C)(C)n1cc(C(=O)c2cncc(NC(=O)Cc3ccc(F)cn3)c2)c2cnc(N)nc21 [Example 548, N-{5-[2-Amino-7-(2-methoxy-1,1-dimethyl-ethyl)-7H-pyrrolo[2,3-d]pyrimidine-5-carbonyl]-pyridin-3-yl}-2-(5-fluoro-pyridin-2-yl)-acetamide] |
| 3.22 nM | COCC(C)(C)n1cc(C(=O)c2cncc(NC(=O)Cn3ccc(C(F)(F)F)n3)c2)c2cnc(N)nc21 [Example 549, N-{5-[2-Amino-7-(2-methoxy-1,1-dimethyl-ethyl)-7H-pyrrolo[2,3-d]pyrimidine-5-carbonyl]-pyridin-3-yl}-2-(3-trifluoromethyl-pyrazol-1-yl)-acetamide] |
| 16.1 nM | COCC(C)(C)n1cc(C(=O)c2cncc(NC(=O)Cn3cc(C(F)(F)F)nn3)c2)c2cnc(N)nc21 [Example 550, N-{5-[2-Amino-7-(2-methoxy-1,1-dimethyl-ethyl)-7H-pyrrolo[2,3-d]pyrimidine-5-carbonyl]-pyridin-3-yl}-2-(4-trifluoromethyl-[1,2,3]triazol-1-yl)-acetamide] |
| 2.78 nM | COCC(C)(C)n1cc(C(=O)c2cncc(NC(=O)Cn3cc(C(F)(F)F)cn3)c2)c2cnc(N)nc21 [Example 551, N-{5-[2-Amino-7-(2-methoxy-1,1-dimethyl-ethyl)-7H-pyrrolo[2,3-d]pyrimidine-5-carbonyl]-pyridin-3-yl}-2-(4-trifluoromethyl-pyrazol-1-yl)-acetamide] |
| 7.62 nM | COCC(C)(C)n1cc(C(=O)c2cncc(NC(=O)Cn3cc(C4CC4)nn3)c2)c2cnc(N)nc21 [Example 552, N-{5-[2-Amino-7-(2-methoxy-1,1-dimethyl-ethyl)-7H-pyrrolo[2,3-d]pyrimidine-5-carbonyl]-pyridin-3-yl}-2-(4-cyclopropyl-[1,2,3]triazol-1-yl)-acetamide] |
| 4.4 nM | CC(C)(CO)n1cc(C(=O)c2cncc(NC(=O)Cn3cc4ccccc4n3)c2)c2cnc(N)nc21 [Example 553, N-{5-[2-Amino-7-(2-hydroxy-1,1-dimethyl-ethyl)-7H-pyrrolo[2,3-d]pyrimidine-5-carbonyl]-pyridin-3-yl}-2-indazol-2-yl-acetamide] |
| 270 nM | CC(C)(CO)n1cc(C(=O)c2cncc(NC(=O)Cn3cnc4ccccc4c3=O)c2)c2cnc(N)nc21 [Example 554, N-{5-[2-Amino-7-(2-hydroxy-1,1-dimethyl-ethyl)-7H-pyrrolo[2,3-d]pyrimidine-5-carbonyl]-pyridin-3-yl}-2-(4-oxo-4H-quinazolin-3-yl)-acetamide] |
| 150 nM | CC(C)(CO)n1cc(C(=O)c2cncc(NC(=O)Cc3ncc(F)cc3F)c2)c2cnc(N)nc21 [Example 555, N-{5-[2-Amino-7-(2-hydroxy-1,1-dimethyl-ethyl)-7H-pyrrolo[2,3-d]pyrimidine-5-carbonyl]-pyridin-3-yl}-2-(3,5-difluoro-pyridin-2-yl)-acetamide] |
| 3.16 nM | Cc1ccc(CC(=O)Nc2cncc(C(=O)c3cn(C(C)(C)CO)c4nc(N)ncc34)c2)nc1 [Example 556, N-{5-[2-Amino-7-(2-hydroxy-1,1-dimethyl-ethyl)-7H-pyrrolo[2,3-d]pyrimidine-5-carbonyl]-pyridin-3-yl}-2-(5-methyl-pyridin-2-yl)-acetamide] |
| 9.47 nM | CN(c1ccc(CC(=O)Nc2cncc(C(=O)c3cn(C(C)(C)CO)c4nc(N)ncc34)c2)cc1)S(C)(=O)=O [Example 557, N-(5-{[2-amino-7-(2-hydroxy-1,1-dimethylethyl)-7H-pyrrolo[2,3-d]pyrimidin-5-yl]carbonyl}pyridin-3-yl)-2-{4-[methyl(methylsulfonyl)amino]phenyl}-acetamide] |
| 5.56 nM | CC(C)(CO)n1cc(C(=O)c2cncc(NC(=O)Cc3nc4ccccc4[nH]3)c2)c2cnc(N)nc21 [Example 558, N-{5-[2-Amino-7-(2-hydroxy-1,1-dimethyl-ethyl)-7H-pyrrolo[2,3-d]pyrimidine-5-carbonyl]-pyridin-3-yl}-2-(1H-benzoimidazol-2-yl)-acetamide] |
| 374 nM | CC(C)(CO)n1cc(C(=O)c2cncc(NC(=O)Cn3cc(C(F)(F)F)ccc3=O)c2)c2cnc(N)nc21 [Example 559, N-{5-[2-Amino-7-(2-hydroxy-1,1-dimethyl-ethyl)-7H-pyrrolo[2,3-d]pyrimidine-5-carbonyl]-pyridin-3-yl}-2-(2-oxo-5-trifluoromethyl-2H-pyridin-1-yl)-acetamide] |
| 1610 nM | CC(C)(CO)n1cc(C(=O)c2cncc(NC(=O)Cc3ncc(Cl)cc3F)c2)c2cnc(N)nc21 [Example 560, N-{5-[2-Amino-7-(2-hydroxy-1,1-dimethyl-ethyl)-7H-pyrrolo[2,3-d]pyrimidine-5-carbonyl]-pyridin-3-yl}-2-(5-chloro-3-fluoro-pyridin-2-yl)-acetamide] |
| 112 nM | CCOc1ccc(CC(=O)Nc2cncc(C(=O)c3cn(C(C)(C)CO)c4nc(N)ncc34)c2)nc1 [Example 561, N-{5-[2-Amino-7-(2-hydroxy-1,1-dimethyl-ethyl)-7H-pyrrolo[2,3-d]pyrimidine-5-carbonyl]-pyridin-3-yl}-2-(5-ethoxy-pyridin-2-yl)-acetamide] |
| 3.75 nM | CC(C)(CO)n1cc(C(=O)c2cncc(NC(=O)Cc3ccc(C(F)(F)F)cn3)c2)c2cnc(N)nc21 [Example 562, N-{5-[2-Amino-7-(2-hydroxy-1,1-dimethyl-ethyl)-7H-pyrrolo[2,3-d]pyrimidine-5-carbonyl]-pyridin-3-yl}-2-(5-trifluoromethyl-pyridin-2-yl)-acetamide] |
| 3.11 nM | CC(C)(CO)n1cc(C(=O)c2cncc(NC(=O)Cn3cc(C(F)(F)F)cn3)c2)c2cnc(N)nc21 [Example 563, N-{5-[2-Amino-7-(2-hydroxy-1,1-dimethyl-ethyl)-7H-pyrrolo[2,3-d]pyrimidine-5-carbonyl]-pyridin-3-yl}-2-(4-trifluoromethyl-pyrazol-1-yl)-acetamide] |
| 1.57 nM | CC(C)(CO)n1cc(C(=O)c2cncc(NC(=O)Cc3ccc(NS(C)(=O)=O)cc3)c2)c2cnc(N)nc21 [Example 564, N-{5-[2-Amino-7-(2-hydroxy-1,1-dimethyl-ethyl)-7H-pyrrolo[2,3-d]pyrimidine-5-carbonyl]-pyridin-3-yl}-2-(4-methanesulfonylamino-phenyl)-acetamide] |
| 17.9 nM | CC(C)(CO)n1cc(C(=O)c2cncc(NC(=O)Cc3ccc(OC(F)F)cc3)c2)c2cnc(N)nc21 [Example 565, N-{5-[2-Amino-7-(2-hydroxy-1,1-dimethyl-ethyl)-7H-pyrrolo[2,3-d]pyrimidine-5-carbonyl]-pyridin-3-yl}-2-(4-difluoromethoxy-phenyl)-acetamide] |
| 20.8 nM | CC(C)(CO)n1cc(C(=O)c2cncc(NC(=O)Cc3ccc(OC(F)(F)F)cc3)c2)c2cnc(N)nc21 [Example 567, N-{5-[2-Amino-7-(2-hydroxy-1,1-dimethyl-ethyl)-7H-pyrrolo[2,3-d]pyrimidine-5-carbonyl]-pyridin-3-yl}-2-(4-trifluoromethoxy-phenyl)-acetamide] |
| 12.1 nM | CC(C)(CO)n1cc(C(=O)c2cncc(NC(=O)Cc3ccc(F)c(F)c3)c2)c2cnc(N)nc21 [Example 568, N-{5-[2-Amino-7-(2-hydroxy-1,1-dimethyl-ethyl)-7H-pyrrolo[2,3-d]pyrimidine-5-carbonyl]-pyridin-3-yl}-2-(3,4-difluoro-phenyl)-acetamide] |
| 34.4 nM | CC(C)(CO)n1cc(C(=O)c2cncc(NC(=O)Cc3ncc(Cl)cn3)c2)c2cnc(N)nc21 [Example 569, N-{5-[2-Amino-7-(2-hydroxy-1,1-dimethyl-ethyl)-7H-pyrrolo[2,3-d]pyrimidine-5-carbonyl]-pyridin-3-yl}-2-(5-chloro-pyrimidin-2-yl)-acetamide] |
| 6970 nM | N#Cc1ccc(CC(=O)Nc2cncc(C(=O)c3c[nH]c4ncncc34)c2)cc1 [Example 570, 2-(4-Cyano-phenyl)-N-[5-(7H-pyrrolo[2,3-d]pyrimidine-5-carbonyl)-pyridin-3-yl]-acetamide] |
| 2.92 nM | CC1(n2cc(C(=O)c3cncc(NC(=O)Cc4ccc(C(F)(F)F)cc4)c3)c3cncnc32)COC1 [Example 571, N-{5-[7-(3-Methyl-oxetan-3-yl)-7H-pyrrolo[2,3-d]pyrimidine-5-carbonyl]-pyridin-3-yl}-2-(4-trifluoromethyl-phenyl)-acetamide] |

— patent publication US8846698B2, “Pyrrolo[2,3-d]pyrimidine tropomysin-related kinase inhibitors” (Pfizer Limited, priority 2011, dated 2014)
